Assay results as given in patent US12582638B2, “Pharmaceutical composition for treating cancer, containing mTOR-signaling inhibitor as active ingredient” (KOREA ADVANCED INSTITUTE OF SCIENCE AND TECHNOLOGY, priority 2020, dated 2026).

What was measured:
p-S6K, p-S6, LC3 [1] = assay: Cell signaling assay, western blot, SNU1; assay type: cell-based, human; conditions: 0, 5, and 10 μM, FIG. 7f
Protocol: (§1) Cells treated with various concentration (0, 5, and 10 μM) of lomitapide were lysed with RIPA buffer containing a protease-inhibitor cocktail. The whole-cell lysate was incubated on ice for 30 minutes. After centrifugation at 4° C. and 13,300×g for 15 minutes, the supernatant was collected. For use as controls, cells were treated with 1 μM of torin, known as an mTOR inhibitor.
(§2) For western blot analysis, the supernatant was loaded onto 10% SDS-PAGE gel. The separated proteins were blotted onto a PVDF membrane. Then, the blots were incubated with antibodies at 4° C. for 12 hours as follows (Table 3).
(§3) Then, the blots were washed with TBST (a mixture of tris-buffered saline (TBS) and Tween 20), incubated with horseradish peroxidase-conjugated secondary antibody (Cell signaling) at 37° C. for 1 hour, and washed, followed by detecting enhanced chemiluminescence (ECL; Amersham).

p-S6K, p-S6, LC3 [2] = assay: Cell signaling assay, western blot, SNU2; assay type: cell-based, human; conditions: 0, 5, and 10 μM, FIG. 7g
Protocol: as §1, §2, §3

[3] = test system: immunocytes (CD4+, CD4+/CD44+, CD8+, CD8+/IFNη, Foxp3, NK, and NK/IFNγ); assay: Immunocyte analysis in MC38 homograft model; assay type: in vivo, mouse; conditions: lomitapide alone
Protocol: (§4) For mouse homograft tumor model, experiments were conducted using female C57B6/N mice (wild-type, 6 weeks old) with MC38 colorectal cancer and B16F10 melanoma cell lines. MC38 colorectal cancer and B16F10 melanoma cell lines were each subcutaneously injected at a dose of 2×10^5 cells. Lomitapide used in the two models was formulated with 45% saline, 40% PEG300, 5% Tween-80, and 10% DMSO.
(§5) From 10 days after the DMC38 colorectal cancer cells injection, lomitapide was intraperitoneally injected five times at a dose of 20 mg/kg, and anti-PD-1 mAb (clone RMP1-14, BioXCell, West Lebanon, NH, USA) or rat IgG2a iso-type control (clone 2A3, BioXCell, BE0089) in PBS was administered at a dose of 10 mg/kg at days 1, 4, 7, and 10 (FIGS. 18a and 18b).
In addition, MC38 colorectal cancer cells were analyzed for immunocytes (CD4+, CD4+/CD44+, CD8+, CD8+/IFNη, Foxp3, NK, and NK/IFNγ).

MC38 colorectal cancer = assay: Mouse homograft tumor model, MC38 colorectal cancer; assay type: in vivo; conditions: MC38 in C57B6/N mice
Protocol: as §4, §5

p-S6K, p-S6, LC3 [4] = assay: Cell signaling assay, western blot, SW480; assay type: cell-based, human; conditions: 0, 5, and 10 μM, FIG. 7a
Protocol: as §1, with “concentrations” for “concentration”, “controls, HCT116, SW480, HT29, MDA-MB-231, and MDA-MB-468” for “controls,”
For western blot analysis, the supernatant was loaded onto 10% SDS-PAGE gel. The separated proteins were blotted onto a PVDF membrane. Then, the blots were incubated with antibodies at 4° C. for 12 hours as follows (Table 2).
as §3

Compound: O=C(NC1CCN(CCCCC2(C(=O)NCC(F)(F)F)c3ccccc3-c3ccccc32)CC1)c1ccccc1-c1ccc(C(F)(F)F)cc1 [lomitapide, N-(2,2,2-trifluoroethyl)-9-[4-[4-[[[4′-(trifluoromethyl)[1,1′-biphenyl]2-yl]carbonyl]amino]-1-piperidinyl]butyl]-9H-fluoren-9-carboxamide]
- conversion from LC3I into LC3II (p-S6K, p-S6, LC3 [1]): increased induction of conversion from LC3I into LC3II
- phosphorylation levels of target proteins (p-S6K, p-S6) (p-S6K, p-S6, LC3 [1]; dose-dependent): remarkably decreased phosphorylation levels
- conversion from LC3I into LC3II (p-S6K, p-S6, LC3 [2]): increased induction of conversion from LC3I into LC3II
- phosphorylation levels of target proteins (p-S6K, p-S6) (p-S6K, p-S6, LC3 [2]; dose-dependent): remarkably decreased phosphorylation levels
- level of CD4+ immunocytes vs group treated with anti-PD-1 mAb alone [3]: superior
- level of CD4+/CD44+ immunocytes vs group treated with anti-PD-1 mAb alone [3]: similar
- level of CD8+ immunocytes vs group treated with anti-PD-1 mAb alone [3]: similar
- level of CD8+/IFNη immunocytes vs group treated with anti-PD-1 mAb alone [3]: similar
- level of Foxp3 immunocytes vs group treated with anti-PD-1 mAb alone [3]: similar
- level of NK immunocytes vs group treated with anti-PD-1 mAb alone [3]: superior
- level of NK/IFNγ immunocytes vs group treated with anti-PD-1 mAb alone [3]: superior
- tumor growth compared to the groups treated with the anti-PD-1 mAb (MC38 colorectal cancer; lomitapide 20 mg/kg i.p., anti-PD-1 mAb 10 mg/kg): greatly suppressed and reduced
- tumor growth compared to the control (MC38 colorectal cancer; lomitapide 20 mg/kg intraperitoneally five times): significantly suppressed and reduced tumor growth
- conversion from LC3I into LC3II (p-S6K, p-S6, LC3 [4]): increased induction of conversion from LC3I into LC3II
- phosphorylation levels of target proteins (p-S6K and p-S6) (p-S6K, p-S6, LC3 [4]): remarkably decreased phosphorylation levels
